The source made the active and inactive calls.
Key:
[1] = biological target: T1, Methionyl-tRNA synthetase, putative (Trypanosoma brucei brucei, UniProt Q38C91); type: functional, Trypanosoma brucei brucei strain 927/4 GUTat10.1
T1 sequence (Q38C91 whole entry): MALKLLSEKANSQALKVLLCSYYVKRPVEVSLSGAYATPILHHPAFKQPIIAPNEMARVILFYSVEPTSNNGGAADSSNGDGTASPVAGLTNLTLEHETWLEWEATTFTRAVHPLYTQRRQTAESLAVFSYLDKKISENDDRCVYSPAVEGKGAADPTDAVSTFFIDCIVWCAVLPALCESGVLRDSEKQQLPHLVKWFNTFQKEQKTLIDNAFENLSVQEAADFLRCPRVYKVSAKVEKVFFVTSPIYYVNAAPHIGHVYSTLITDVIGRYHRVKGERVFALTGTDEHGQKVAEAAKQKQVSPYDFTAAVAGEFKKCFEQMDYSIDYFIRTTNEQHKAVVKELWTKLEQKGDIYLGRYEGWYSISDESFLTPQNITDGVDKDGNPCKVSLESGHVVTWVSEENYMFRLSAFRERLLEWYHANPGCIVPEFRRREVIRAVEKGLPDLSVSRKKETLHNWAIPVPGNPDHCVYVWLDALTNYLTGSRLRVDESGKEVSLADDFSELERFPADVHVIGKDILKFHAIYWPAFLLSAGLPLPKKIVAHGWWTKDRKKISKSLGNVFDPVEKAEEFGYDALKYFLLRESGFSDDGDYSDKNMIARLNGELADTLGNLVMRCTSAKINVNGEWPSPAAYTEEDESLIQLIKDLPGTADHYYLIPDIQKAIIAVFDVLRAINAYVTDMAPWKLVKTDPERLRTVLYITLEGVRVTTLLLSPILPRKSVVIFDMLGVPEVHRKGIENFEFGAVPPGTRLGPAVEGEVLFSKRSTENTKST

[2] = Counterscreen for inhibitors of Trypanosoma brucei methionyl tRNA synthetase (MetRS): Luminescence-based cell-based high throughput dose response assay to identify compounds that are cytotoxic to Jurkat human T lymphocyte cells.; type: functional
[3] = biological target: T1, Methionyl-tRNA synthetase, putative; type: functional, Trypanosoma brucei brucei strain 927/4 GUTat10.1; remark: listed apart in the source
Melanocortin receptor 4 = Melanocortin receptor 4 (Homo sapiens, UniProt P32245); type: functional, cell-based;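 also: Cell-based assay with luminescence read-out, confirmatory dose-response testing for agonist activity of biased ligands at MC4R; human U2OS cells with tagged receptor and beta-arrestin; potency of agonists that increase receptor coupling to beta-arrestin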
cells = type: functional
[4] = biological target: T2, Rac GTPase-activating protein 1 (Homo sapiens, UniProt Q9H0H5); assay: blockers of MgcRacGAP-driven Rac1 GTP hydrolysis – biochemical, ADP Hunter fluorescence, primary and confirmatory, confirmation (AID 624330); type: functional
T2 sequence (Q9H0H5 whole entry): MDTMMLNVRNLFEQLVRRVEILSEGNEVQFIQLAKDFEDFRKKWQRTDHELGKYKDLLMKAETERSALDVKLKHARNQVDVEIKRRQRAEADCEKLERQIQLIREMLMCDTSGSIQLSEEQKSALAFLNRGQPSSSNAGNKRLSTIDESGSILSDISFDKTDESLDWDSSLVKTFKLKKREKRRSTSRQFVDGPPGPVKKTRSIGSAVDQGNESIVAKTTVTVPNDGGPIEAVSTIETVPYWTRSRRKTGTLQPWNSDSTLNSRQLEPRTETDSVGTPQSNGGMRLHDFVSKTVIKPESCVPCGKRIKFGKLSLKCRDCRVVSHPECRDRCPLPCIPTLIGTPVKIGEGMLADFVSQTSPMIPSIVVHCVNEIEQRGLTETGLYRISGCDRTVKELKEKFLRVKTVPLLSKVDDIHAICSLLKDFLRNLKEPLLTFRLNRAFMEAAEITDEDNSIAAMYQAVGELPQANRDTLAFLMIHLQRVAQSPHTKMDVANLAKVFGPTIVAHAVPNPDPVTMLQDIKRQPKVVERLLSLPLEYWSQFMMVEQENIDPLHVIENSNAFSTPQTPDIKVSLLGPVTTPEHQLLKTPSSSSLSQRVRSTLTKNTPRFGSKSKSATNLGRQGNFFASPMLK

[5] = biological target: T3, Carboxy-terminal domain RNA polymerase II polypeptide A small phosphatase 1 (Homo sapiens, UniProt Q9GZU7); assay: CTDSP1 inhibitors, concentration-response, biochemical, absorbance readout, ultra-high-throughput screen actives (AID 540297); type: functional
T3 sequence (Q9GZU7 whole entry): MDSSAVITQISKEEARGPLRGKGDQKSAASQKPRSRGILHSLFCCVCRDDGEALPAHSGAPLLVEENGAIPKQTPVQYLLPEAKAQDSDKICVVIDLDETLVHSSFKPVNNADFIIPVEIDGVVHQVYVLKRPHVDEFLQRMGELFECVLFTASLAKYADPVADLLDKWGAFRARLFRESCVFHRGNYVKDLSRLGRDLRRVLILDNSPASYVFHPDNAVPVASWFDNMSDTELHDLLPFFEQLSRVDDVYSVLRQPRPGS

[6] = biological target: NAD-dependent protein deacylase sirtuin-5, mitochondrial (Homo sapiens, UniProt Q9NXA8); assay: sirtuin-5 deacylation blockers, concentration series – biochemical, fluorescence imaging, cherry-pick, set 5, dose response (AID 720591);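 also: desuccinylation of succinyl peptide AMC substrate read as fluorescence after trypsin release; potency of inhibitors that lower fluorescence and may act on trypsin instead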
Sequence of NAD-dependent protein deacylase sirtuin-5, mitochondrial (Q9NXA8 whole entry): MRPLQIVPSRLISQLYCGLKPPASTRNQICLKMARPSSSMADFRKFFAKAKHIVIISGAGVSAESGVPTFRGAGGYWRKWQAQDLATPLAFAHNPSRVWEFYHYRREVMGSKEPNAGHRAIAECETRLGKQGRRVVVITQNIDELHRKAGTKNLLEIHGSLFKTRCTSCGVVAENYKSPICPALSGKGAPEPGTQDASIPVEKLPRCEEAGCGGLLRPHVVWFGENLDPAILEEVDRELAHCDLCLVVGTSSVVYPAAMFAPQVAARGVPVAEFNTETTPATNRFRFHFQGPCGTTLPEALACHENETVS

Sequence of Melanocortin receptor 4 (P32245 whole entry): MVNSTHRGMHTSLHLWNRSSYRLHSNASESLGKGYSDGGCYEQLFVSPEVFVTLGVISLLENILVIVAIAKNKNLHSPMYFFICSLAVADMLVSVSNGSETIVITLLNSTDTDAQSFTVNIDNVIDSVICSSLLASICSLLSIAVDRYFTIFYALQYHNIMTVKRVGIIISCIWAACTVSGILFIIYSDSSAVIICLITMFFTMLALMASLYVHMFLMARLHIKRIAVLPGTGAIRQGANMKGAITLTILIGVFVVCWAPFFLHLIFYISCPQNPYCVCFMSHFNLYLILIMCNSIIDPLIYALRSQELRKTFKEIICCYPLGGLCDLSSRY

| Compound | IC50 [1] | IC50 [2] | IC50 [3] | further results |
| --- | --- | --- | --- | --- |
| Cc1ccc(-c2c[nH]c(C(O)c3cc(Cl)cc(Cl)c3)n2)cc1 (stereo not drawn) | 15.3 µM (inactive) | 74.7 µM (inactive) | 6.3 µM (active) |  |
| Cc1c(NS(=O)(=O)c2cc(C(=O)NCc3cccc(Cl)c3)ccc2Cl)c(=O)n(-c2ccccc2)n1C | 94.9 µM (inactive) | 83.3 µM (inactive) | 26.8 µM (inactive) |  |
| COc1ccccc1-c1cc(NC(C)=O)c2ncc(-c3cccc(C(F)(F)F)c3)n2c1 |  |  |  | EC50 (Melanocortin receptor 4): > 89.2 µM (inactive) |
| COc1ccc(-c2cc(NC(C)=O)c3ncc(-c4ccc(F)cc4)n3c2)cc1OC |  |  |  | EC50 (Melanocortin receptor 4): > 89.2 µM (inactive) |
| O=C(C/C=N\OCc1ccc([N+](=O)[O-])cc1)Nc1ccc(Cl)cc1 | 2.56 µM (active) | 83.3 µM (inactive) | 1.73 µM (active) | IC50 (cells): 25.5 µM (active) |
| O=C(CC(=O)Nc1ccc(Cl)c(Cl)c1)N/N=C/c1ccc(O)cc1 | 25.3 µM (inactive) | 83.3 µM (inactive) | 43.9 µM (inactive) | IC50 [4]: 74 µM (active) |
| Cc1ccc(S(=O)(=O)OCC(=O)Nc2ccc(C(=O)O)c(O)c2)cc1 |  |  |  | IC50 [5]: 4.64 µM (active); AC50 [6]: 4.19 µM (active) |

Reference: ChEMBL document CHEMBL1201862, “PubChem BioAssay data set” (2004)
